From US20250223259A1, “PROTEASE INHIBITORS FOR TREATING OR PREVENTING CORONAVIRUS INFECTION” (Merck Sharp & Dohme LLC, priority 2022, published 2025) come the findings set out here.

The structures appear in SMILES notation.

The target in this test is SARS2 coronavirus 3CL protease (Severe acute respiratory syndrome coronavirus 2 (2019-nCoV) (SARS-CoV-2), UniProt P0DTD1). The test can be described thus: SARS2 Coronavirus 3CL Protease Assay (FRET). In kind it is biochemical. The conditions noted are these: SARS2 3CLPro FRET assay; 5 nM enzyme, 30 min pre-incubation with compound, 15 uM peptide substrate, 4 h room temperature.

Protocol: The enzymatic activity of SARS2 coronavirus 3CL protease was determined in a FRET (fluorescence resonance energy transfer)-based assay measuring the cleavage of a peptide substrate by recombinantly expressed and purified enzyme. Cleavage of the peptide SEQ ID NO:1 (CPC Scientific) by SARS2 3CL protease was measured in reaction buffer (50 mM Hepes pH 7.5, 0.01% Triton X-100, 0.01% BSA, 2 mM DTT). SARS2 3CL protease (5 nM final concentration) was pre-incubated with compound for 30 minutes before reaction initiation with peptide substrate (15 uM final concentration). Room temperature reactions (4 h) were quenched by addition of a high dose of inhibitor and read on an appropriate plate reader (excitation wavelength=495 nm, emission wavelength=520 nm). Data were analyzed by a standard 4 parameter fit to determine IC50 values.

On to `COC(=O)N[C@H](C(=O)N1CCCC(C)C1C(=O)N[C@@H](CCC(C)(F)F)C(=O)C(=O)NC1CC1)C(C)(C)C` (single isomer, unassigned) [Example 49, Methyl ((S)-1-((2(R or S),3(R or S))-2-(((S)-1-(cyclopropylamino)-6,6-difluoro-1,2-dioxoheptan-3-yl)carbamoyl)-3-methylpiperidin-1-yl)-3,3-dimethyl-1-oxobutan-2-yl)carbamate], for which the IC50 turned out to be 60 nM.

Regarding `COC(=O)N[C@H](C(=O)N1CCC(C)C1C(=O)N[C@@H](CCC(C)(F)F)C(=O)C(=O)NC1CC1)C(C)(C)C` (single isomer, unassigned) [Example 51, Methyl ((S)-1-((2(R or S),3(R or S))-2-(((S)-1-(cyclopropylamino)-6,6-difluoro-1,2-dioxoheptan-3-yl)carbamoyl)-3-methylpyrrolidin-1-yl)-3,3-dimethyl-1-oxobutan-2-yl)carbamate], the IC50 was 97 nM.

With `COC(=O)N[C@H](C(=O)N1CC(C)(C)CCC1C(=O)N[C@@H](CCC(C)(F)F)C(=O)C(=O)NC1CC1)C(C)(C)C` (single isomer, unassigned) [Example 52, Methyl ((S)-1-(R or S)-2-(((S)-1-(cyclopropylamino)-6,6-difluoro-1,2-dioxoheptan-3-yl)carbamoyl)-5,5-dimethylpiperidin-1-yl)-3,3-dimethyl-1-oxobutan-2-yl)carbamate], the IC50 was determined as 144 nM.

As for `COC(=O)N[C@H](C(=O)N1CC(C2CCOC2)C[C@H]1C(=O)N[C@@H](CCC(C)(F)F)C(=O)C(=O)NC1CC1)C(C)(C)C` (single isomer, unassigned) [Example 54, Methyl ((S)-1-((2S,4(R or S))-2-(((S)-1-(cyclopropylamino)-6,6-difluoro-1,2-dioxoheptan-3-yl)carbamoyl)-4-((R or S)-tetrahydrofuran-3-yl)pyrrolidin-1-yl)-3,3-dimethyl-1-oxobutan-2-yl)carbamate], the IC50 was determined as 201 nM.

In the case of `COC(=O)N[C@H](C(=O)N1CCCCC1C(=O)N[C@@H](CCC(C)(F)F)C(=O)C(=O)NC1CC1)C(C)(C)C` (single isomer, unassigned) [Example 55, Methyl ((S)-1-((S or R)-2-(((S)-1-(cyclopropylamino)-6,6-difluoro-1,2-dioxoheptan-3-yl)carbamoyl)piperidin-1-yl)-3,3-dimethyl-1-oxobutan-2-yl)carbamate: methyl ((S)-1-((R or S)-2-(((S)-1-(cyclopropylamino)-6,6-difluoro-1,2-dioxoheptan-3-yl)carbamoyl)piperidin-1-yl)-3,3-dimethyl-1-oxobutan-2-yl)carbamate], the IC50 is 239 nM.

Take `COC(=O)N[C@H](C(=O)N1CC2(CCC(F)(F)CC2)CC1C(=O)N[C@@H](CCC(C)(F)F)C(=O)C(=O)NC1CC1)C(C)(C)C` (single isomer, unassigned) [Example 56, Methyl ((S)-1-((R or S)-(3-(((S)-1-(cyclopropylamino)-6,6-difluoro-1,2-dioxoheptan-3-yl)carbamoyl)-8,8-difluoro-2-azaspiro[4.5]decan-2-yl)-3,3-dimethyl-1-oxobutan-2-yl)carbamate]: the concentration for half-maximal inhibition (IC50) is 291 nM.

As to `COC(=O)N[C@H](C(=O)N1CC(C2COC2)C[C@H]1C(=O)N[C@@H](CCC(C)(F)F)C(=O)C(=O)NC1CC1)C(C)(C)C` (single isomer, unassigned) [Example 57, Methyl ((S)-1-((2S, 4(R or S))-2-(((S)-1-(cyclopropylamino)-6,6-difluoro-1,2-dioxoheptan-3-yl)carbamoyl)-4-(oxetan-3-yl)pyrrolidin-1-yl)-3,3-dimethyl-1-oxobutan-2-yl)carbamate], the IC50 amounted to 305 nM.

For `COC(=O)N[C@H](C(=O)N1CCC(O)(C(F)(F)F)C[C@H]1C(=O)N[C@@H](CCC(C)(F)F)C(=O)C(=O)NC1CC1)C(C)(C)C` (single isomer, unassigned) [Example 58, Methyl ((S)-1-((2S, 4(R or S))-2-(((S)-1-(cyclopropylamino)-6,6-difluoro-1,2-dioxoheptan-3-yl)carbamoyl)-4-hydroxy-4-(trifluoromethyl)piperidin-1-yl)-3,3-dimethyl-1-oxobutan-2-yl)carbamate], the IC50 amounted to 347 nM.

On to `COC(=O)NC(C(=O)N1CC2(CCCCC2)C[C@H]1C(=O)N[C@@H](CCC(C)(F)F)C(=O)C(=O)NC1CC1)C1CCC1` (single isomer, unassigned) [Example 63, Methyl ((R or S)-1-cyclobutyl-2-((S)-3-(((S)-1-(cyclopropylamino)-6,6-difluoro-1,2-dioxoheptan-3-yl)carbamoyl)-2-azaspiro[4.5]decan-2-yl)-2-oxoethyl)carbamate], for which the IC50 worked out at 32 nM.

On to `CCC1CCN(C(=O)[C@@H](NC(=O)OC)C(C)(C)C)C1C(=O)N[C@@H](CCC(C)(F)F)C(=O)C(=O)NC1CC1` (single isomer, unassigned) [Example 72, Methyl ((S)-1-((2(R or S),3(R or S))-2-(((S)-1-(cyclopropylamino)-6,6-difluoro-1,2-dioxoheptan-3-yl)carbamoyl)-3-ethylpyrrolidin-1-yl)-3,3-dimethyl-1-oxobutan-2-yl)carbamate], for which the IC50 was found to be 48 nM.

`COC(=O)N[C@H](C(=O)N1CCC(C)(C)C1C(=O)N[C@@H](CCC(C)(F)F)C(=O)C(=O)NC1CC1)C(C)(C)C` (single isomer, unassigned) [Example 73, Methyl ((S)-1-((R or S)-2-(((S)-1-(cyclopropylamino)-6,6-difluoro-1,2-dioxoheptan-3-yl)carbamoyl)-3,3-dimethylpyrrolidin-1-yl)-3,3-dimethyl-1-oxobutan-2-yl)carbamate]: the IC50 is 60 nM.

Turning to `COC(=O)N[C@H](C(=O)N1C(C(=O)N[C@@H](CCC(C)(F)F)C(=O)C(=O)NC2CC2)[C@H]2CC[C@@H]1C2)C(C)(C)C` (single isomer, unassigned) [Example 77, Methyl ((S)-1-((1R, 3(R or S),4S)-3-(((S)-1-(cyclopropylamino)-6,6-difluoro-1,2-dioxoheptan-3-yl)carbamoyl)-2-azabicyclo[2.2.1]heptan-2-yl)-3,3-dimethyl-1-oxobutan-2-yl)carbamate], the IC50 is 133 nM.

In the case of `COC(=O)N[C@H](C(=O)N1CC(C(F)(F)F)CCC1C(=O)N[C@@H](CCC(C)(F)F)C(=O)C(=O)NC1CC1)C(C)(C)C` (single isomer, unassigned) [Example 82, methyl ((S)-1-((2S,5S or 2R,5R)-2-(((S)-1-(cyclopropylamino)-6,6-difluoro-1,2-dioxoheptan-3-yl)carbamoyl)-5-(trifluoromethyl)piperidin-1-yl)-3,3-dimethyl-1-oxobutan-2-yl)carbamate], the IC50 came out at 51 nM.

On to `COC(=O)N[C@H](C(=O)N1CCC2CC2[C@H]1C(=O)N[C@@H](CCC(C)(F)F)C(=O)C(=O)NC1CC1)C(C)(C)C` (single isomer, unassigned) [Example 83, methyl ((S)-1-((1R,2S,6R or 1R,2S,6S)-2-(((S)-1-(cyclopropylamino)-6,6-difluoro-1,2-dioxoheptan-3-yl)carbamoyl)-3-azabicyclo[4.1.0]heptan-3-yl)-3,3-dimethyl-1-oxobutan-2-yl)carbamate], for which the IC50 was determined as 83 nM.

As to `COC(=O)N[C@H](C(=O)N1CC2CC2C[C@H]1C(=O)N[C@@H](CCC(C)(F)F)C(=O)C(=O)NC1CC1)C(C)(C)C` (single isomer, unassigned) [Example 84, methyl ((S)-1-((1S,4S,6S or 1R,4S,6R)-4-(((S)-1-(cyclopropylamino)-6,6-difluoro-1,2-dioxoheptan-3-yl)carbamoyl)-3-azabicyclo[4.1.0]heptan-3-yl)-3,3-dimethyl-1-oxobutan-2-yl)carbamate], the IC50 worked out at 96 nM.

Consider `COC(=O)N[C@H](C(=O)N1CCCC(C2CC2)C1C(=O)N[C@@H](CCC(C)(F)F)C(=O)C(=O)NC1CC1)C(C)(C)C` (single isomer, unassigned) [Example 90, methyl ((S)-1-((2S,3R or 2R,3S)-3-cyclopropyl-2-(((S)-1-(cyclopropylamino)-6,6-difluoro-1,2-dioxoheptan-3-yl)carbamoyl)piperidin-1-yl)-3,3-dimethyl-1-oxobutan-2-yl)carbamate], for which the IC50 was determined as 16 nM.

Turning to `CNC(=O)C(=O)[C@H](CCC(C)(F)F)NC(=O)[C@@H]1CC2(CN1C(=O)[C@@H](NC(=O)OC)C(C)(C)C)CC2(F)F` (single isomer, unassigned) [Example 93, methyl ((S)-1-((3(S or R),6S)-6-(((S)-6,6-difluoro-1-(methylamino)-1,2-dioxoheptan-3-yl)carbamoyl)-1,1-difluoro-5-azaspiro[2.4]heptan-5-yl)-3,3-dimethyl-1-oxobutan-2-yl)carbamate], the 50% inhibitory concentration (IC50) stood at 28 nM.

For the compound `CNC(=O)C(=O)[C@H](CCC(C)(F)F)NC(=O)C1C2CC(C)(C)C2CN1C(=O)[C@@H](NC(=O)OC)C(C)(C)C` (single isomer, unassigned) [Example 95, methyl ((S)-1-((1S,2S,5S or 1R,2R,5R)-2-(((S)-6,6-difluoro-1-(methylamino)-1,2-dioxoheptan-3-yl)carbamoyl)-6,6-dimethyl-3-azabicyclo[3.2.0]heptan-3-yl)-3,3-dimethyl-1-oxobutan-2-yl)carbamate], the IC50 is 5 nM.

For the compound `CNC(=O)C(=O)[C@H](CCC(C)(F)F)NC(=O)C1CC(C)(F)CCN1C(=O)[C@@H](NC(=O)OC)C(C)(C)C` (single isomer, unassigned) [Example 97, methyl ((S)-1-((2S,4S or 2R,4R)-2-(((S)-6,6-difluoro-1-(methylamino)-1,2-dioxoheptan-3-yl)carbamoyl)-4-fluoro-4-methylpiperidin-1-yl)-3,3-dimethyl-1-oxobutan-2-yl)carbamate], the IC50 stood at 19 nM.

As for `COC(=O)N[C@H](C(=O)N1CC2(C(F)(F)F)CCCC2C1C(=O)N[C@@H](CCC(C)(F)F)C(=O)C(=O)NC1CC1)C(C)(C)C` (single isomer, unassigned) [Example 98, methyl ((S)-1-((1S,3aS,6aS or 1R,3aR,6aR)-1-(((S)-1-(cyclopropylamino)-6,6-difluoro-1,2-dioxoheptan-3-yl)carbamoyl)-3a-(trifluoromethyl)hexahydrocyclopenta[c]pyrrol-2(1H)-yl)-3,3-dimethyl-1-oxobutan-2-yl)carbamate], the IC50 is 77 nM.
